Test results published in ChEMBL document CHEMBL1124209, “Phosphonoformate and phosphonoacetate derivatives of 5-substituted 2'-deoxyuridines: synthesis and antiviral activity” (1988).
Values after ≈ are worked out from the molar mass of the structure shown.

What was measured:
Format in all cases: functional
Human alphaherpesvirus 1 [1] = test: Mean survival time in HSV-1 infected mice, after peroral administration of 10 mg/kg of compound; settings: route oral
Oryctolagus cuniculus = organism: Oryctolagus cuniculus; test: Minimum cytotoxic concentration causing toxic effects on uninfected cells in rabbit
Human alphaherpesvirus 1 [2] = test: Cumulative mortality in percent of HSV-1 infected mice, after peroral administration of 1 mg/kg of compound; settings: route oral
Human alphaherpesvirus 1 [3] = test: Mean survival time in HSV-1 infected mice, after peroral administration of 5 mg/kg of compound; settings: route oral
Human alphaherpesvirus 1 [4] = test: Minimum inhibitory concentration causing 25% inhibition of cytopathic effect induced by Herpes simplex virus(HSV) -1 (thymidine kinase deficient) in vero cells
Human alphaherpesvirus 1 [5] = test: Mean survival time in HSV-1 infected mice, after intraperitoneal administration of 0.5 mg/kg of compound
Human alphaherpesvirus 1 [6] = test: Mean survival time in HSV-1 infected mice, after peroral administration of 1 mg/kg of compound; settings: route oral
Human alphaherpesvirus 1 [7] = test: Cumulative mortality in percent of HSV-1 infected mice, after peroral administration of 5 mg/kg of compound; settings: route oral
Human alphaherpesvirus 1 [8] = test: Minimum inhibitory concentration causing 25% inhibition cytopathic effect induced by Herpes simplex virus-1 (Brand) in HEp-2 cells
Human alphaherpesvirus 1 [9] = test: Minimum inhibitory concentration causing 25% inhibition of cytopathic effect induced by Herpes simplex virus(HSV) -1 (thymidine kinase deficient) in HEp-2 cells
Human alphaherpesvirus 1 [10] = test: Cumulative mortality in percent of HSV-1 infected mice, after intraperitoneal administration of 5 mg/kg of compound
Human alphaherpesvirus 1 [11] = test: Minimum inhibitory concentration causing 25% inhibition of cytopathic effect induced by herpes simplex virus (HSV)-1 (K979) in vero cells.
Human alphaherpesvirus 1 [12] = test: Minimum inhibitory concentration causing 25% inhibition of cytopathic effect induced by Herpes simplex virus-1 (Brand) in vero cells
Human alphaherpesvirus 1 [13] = test: Mean survival time in HSV-1 infected mice, after intraperitoneal administration of 1 mg/kg of compound
Human alphaherpesvirus 1 [14] = test: Cumulative mortality in percent of HSV-1 infected mice, after intraperitoneal administration of 0.5 mg/kg of compound
Human alphaherpesvirus 2 [15] = test: Minimum inhibitory concentration causing 25% inhibition of cytopathic effect induced by Herpes simplex virus(HSV) -2 (thymidine kinase deficient) in HEp-2 cells
Human alphaherpesvirus 2 [16] = test: Minimum inhibitory concentration causing 25% inhibition cytopathic effect induced by Herpes simplex virus(HSV) -2 (thymidine kinase deficient) in vero cells
Human alphaherpesvirus 1 [17] = test: Cumulative mortality in percent of HSV-1 infected mice, after intraperitoneal administration of 1 mg/kg of compound
Human alphaherpesvirus 1 [18] = test: Cumulative mortality in percent of HSV-1 infected mice, after peroral administration of 10 mg/kg of compound; settings: route oral
Human alphaherpesvirus 1 [19] = test: Minimum inhibitory concentration causing 25% inhibition of cytopathic effect induced by Herpes simplex virus-1 (K979) in HEp-2 cells
Human alphaherpesvirus 1 [20] = test: Mean survival time in HSV-1 infected mice, after intraperitoneal administration of 5 mg/kg of compound
Mus musculus [21] = test: Mean duration of lesions in HSV-1 infected mice, after administration of 0.1 % of compound intracutaneously
Mus musculus [22] = test: Cumulative lesions in HSV-1 infected mice, after administration of 0.1 % of compound intracutaneously
Human alphaherpesvirus 2 [23] = test: Minimum inhibitory concentration causing 25% inhibition of cytopathic effect induced by Herpes simplex virus(HSV) -2 (thymidine kinase deficient) in vero cells

Compound | MST (Human alphaherpesvirus 1 [1]) | MTC (Oryctolagus cuniculus) | CMP (Human alphaherpesvirus 1 [2]) | MST (Human alphaherpesvirus 1 [3]) | MIC (Human alphaherpesvirus 1 [4]) | MST (Human alphaherpesvirus 1 [5]) | MST (Human alphaherpesvirus 1 [6]) | CMP (Human alphaherpesvirus 1 [7]) | MIC (Human alphaherpesvirus 1 [8]) | MIC (Human alphaherpesvirus 1 [9]) | CMP (Human alphaherpesvirus 1 [10]) | MIC (Human alphaherpesvirus 1 [11]) | MIC (Human alphaherpesvirus 1 [12]) | MST (Human alphaherpesvirus 1 [13]) | CMP (Human alphaherpesvirus 1 [14]) | MIC (Human alphaherpesvirus 2 [15]) | CMP (Human alphaherpesvirus 1 [17]) | CMP (Human alphaherpesvirus 1 [18]) | MIC (Human alphaherpesvirus 1 [19]) | MST (Human alphaherpesvirus 1 [20]) | other results
COP(=O)(CC(=O)OC[C@H]1O[C@@H](n2cc(CCCl)c(=O)[nH]c2=O)C[C@@H]1O)OC | 12.2 days | 749 µM | 58 | 11.2 days | 227 µM (≈ 100 µg/mL) | 13.3 days | 13.5 days | 83 | 6.8 µM (≈ 3 µg/mL) | > 227 µM | 8 | > 227 µM | 6.8 µM (≈ 3 µg/mL) | 13 days | 67 | > 227 µM | 75 | 75 | > 227 µM | 19.2 days | MIC (Human alphaherpesvirus 2 [16]): > 227 µM
O=C(OCc1ccccc1)P(=O)(O)OC[C@H]1O[C@@H](n2cc(CCCl)c(=O)[nH]c2=O)C[C@@H]1O | 16.8 days | 675 µM | 67 | 14.3 days | 20.5 µM (≈ 10 µg/mL) | 13.8 days | 12.7 days | 50 | 20.5 µM (≈ 10 µg/mL) | > 205 µM | 8 | > 205 µM | 20.5 µM (≈ 10 µg/mL) | 16.3 days | 67 | > 205 µM | 33 | 33 | > 205 µM | 19.3 days | MDL (Mus musculus [21]): 8.1 days; lesions (Mus musculus [22]): 100; MIC (Human alphaherpesvirus 2 [23]): 205 µM (≈ 100 µg/mL)
CCOC(=O)P(=O)(O)OC[C@H]1O[C@@H](n2cc(CCCl)c(=O)[nH]c2=O)C[C@@H]1O | 15.3 days | >=773 uM | 92 | 11.9 days | 70.3 µM (≈ 30 µg/mL) | 13.8 days | 10.1 days | 75 | 23.4 µM (≈ 9.99 µg/mL) | > 234 µM | 0 | > 234 µM | 23.4 µM (≈ 9.99 µg/mL) | 16.5 days | 58 | > 234 µM | 33 | 50 | 234 µM (≈ 99.9 µg/mL) | 20 days | MDL (Mus musculus [21]): 6.7 days; lesions (Mus musculus [22]): 80; MIC (Human alphaherpesvirus 2 [23]): 234 µM (≈ 99.9 µg/mL)
O=C(CP(=O)(O)O)O[C@H]1C[C@H](n2cc(CCCl)c(=O)[nH]c2=O)O[C@@H]1CO | – | 800 µM | – | – | 242 µM (≈ 99.9 µg/mL) | – | – | – | 72.7 µM (≈ 30 µg/mL) | > 242 µM | – | 242 µM (≈ 99.9 µg/mL) | 24.2 µM (≈ 9.99 µg/mL) | – | – | > 242 µM | – | – | 72.7 µM (≈ 30 µg/mL) | – | MIC (Human alphaherpesvirus 2 [16]): > 242 µM
CCOC(=O)P(=O)(O)O[C@H]1C[C@H](n2cc(CCCl)c(=O)[nH]c2=O)O[C@@H]1CO | 11.8 days | >=773 uM | 83 | 11.9 days | – | 11.5 days | 11.3 days | 75 | > 234 µM | – | 8 | > 234 µM | 234 µM (≈ 99.9 µg/mL) | 15.6 days | 83 | – | 42 | 75 | > 234 µM | 18.9 days | MDL (Mus musculus [21]): 9.7 days; lesions (Mus musculus [22]): 90
COC(=O)P(=O)(O)OC[C@H]1O[C@@H](n2cc(CCCl)c(=O)[nH]c2=O)C[C@@H]1O | 13.7 days | >=800 uM | 75 | 12.7 days | 242 µM (≈ 99.9 µg/mL) | 11.8 days | 12.6 days | 67 | 24.2 µM (≈ 9.99 µg/mL) | > 242 µM | 33 | > 242 µM | 24.2 µM (≈ 9.99 µg/mL) | 14.1 days | 75 | > 242 µM | 58 | 75 | 242 µM (≈ 99.9 µg/mL) | 16.3 days | MIC (Human alphaherpesvirus 2 [23]): > 242 µM
CCOC(=O)CP(=O)(O)O[C@H]1C[C@H](n2cc(CCCl)c(=O)[nH]c2=O)O[C@@H]1CO | – | 749 µM | – | – | – | – | – | – | > 227 µM | – | – | > 227 µM | > 227 µM | – | – | – | – | – | > 227 µM | – | MDL (Mus musculus [21]): 9.4 days; lesions (Mus musculus [22]): 80
